Reference: US11040035B2, “3-oxo-2,6-diphenyl-2,3-dihydropyridazine-4-carboxamides” (BAYER PHARMA AKTIENGESELLSCHAFT, priority 2016, dated 2021)
Like-named read-outs stand apart in the source and are kept apart here.

How the values were obtained:
AHR [1] = biological target: T1, AHR (Homo sapiens, UniProt P35869); test: In vitro assay 2: agonism in human cell line (transactivation assay)
T1 sequence (P35869 11-848): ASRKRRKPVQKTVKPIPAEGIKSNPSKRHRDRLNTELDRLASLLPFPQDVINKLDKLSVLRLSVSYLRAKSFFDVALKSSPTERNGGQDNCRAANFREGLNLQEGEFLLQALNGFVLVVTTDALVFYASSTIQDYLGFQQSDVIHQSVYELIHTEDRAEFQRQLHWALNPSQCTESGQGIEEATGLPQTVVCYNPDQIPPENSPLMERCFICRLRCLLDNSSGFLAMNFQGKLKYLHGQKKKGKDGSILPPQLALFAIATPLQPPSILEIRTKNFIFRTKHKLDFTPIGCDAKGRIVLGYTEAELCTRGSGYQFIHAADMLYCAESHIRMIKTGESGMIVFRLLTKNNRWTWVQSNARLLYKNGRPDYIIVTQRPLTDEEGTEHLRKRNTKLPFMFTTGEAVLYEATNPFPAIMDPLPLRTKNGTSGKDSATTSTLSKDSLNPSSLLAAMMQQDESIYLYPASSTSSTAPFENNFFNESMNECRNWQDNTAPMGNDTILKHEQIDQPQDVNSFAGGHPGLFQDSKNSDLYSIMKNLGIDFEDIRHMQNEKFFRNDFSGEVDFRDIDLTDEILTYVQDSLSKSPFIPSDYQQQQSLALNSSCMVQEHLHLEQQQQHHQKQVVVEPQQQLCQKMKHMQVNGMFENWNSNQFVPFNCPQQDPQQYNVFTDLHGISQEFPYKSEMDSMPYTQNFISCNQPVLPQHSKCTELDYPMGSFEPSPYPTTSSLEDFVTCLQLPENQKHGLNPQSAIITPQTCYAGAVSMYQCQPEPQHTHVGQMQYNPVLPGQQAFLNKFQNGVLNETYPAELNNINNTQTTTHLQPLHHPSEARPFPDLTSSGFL
Experimental: Transactivation Assay in Human Cell Line (In Vitro Assays 1 and 2)
Transactivation assays were carried out in U87 glioblastoma cells (ATCC) endogenously expressing AHR. In addition the cells were stably transfected with an AHR inducible firefly luciferase reporter gene construct that carried AHR-binding sites (DRE) in its promoter and a renilla reporter gene construct with constitutively active promoter.
In Vitro Assay 2: Agonism in Human Cell Line
Cells in medium (tryptophan free RPMI, 1% FCS, 2 mM Glutamine) were grown for 20 hours in absence (negative control) or presence of increasing concentrations of test compounds (typical dilutions: 72 pmol/L, 0.25 nmol/L, 0.89 nmol/L; 3.1 nmol/L, 11 nmol/L, 38 nmol/L, 130 nmol/L, 470 nmol/L, 1.6 μmol/L, 5.7 μmol/L and 20 μmol/L in duplicates). As positive activation control cells were incubated with 300 μM kynurenic acid. Normalization was done by positive and negative controls.
Firefly luciferase activity was determined by the SteadyGlo Luciferase Assay System (Promega, #2520).

[2] = system: AHR-regulated gene CYP1A1; test: In vitro assay 3: AHR-regulated CYP1A1 expression in human cell line (U937, qPCR)
AHR [3] = biological target: T1, AHR; test: In vitro assay 1: antagonism in human cell line (transactivation assay, kynurenic acid prestimulated); details: Assay 1: AHR-luc Hum Antagonism IC50 [M], 150 μM kynurenic acid, 20 hours, firefly luciferase
[4] = Assay 2: AHR-luc Hum Agonism IC50 [M], no kynurenic acid, 20 hours, firefly luciferase
[5] = read-out: Assay 3: Hum CYP1A1 Antagonism IC50, U937 cells, 200 μM KA, 6 hours, qPCR
[6] = Homo sapiens, U-937, 6 h, read-out: Assay 3: Hum CYP1A1 Antagonism IC50 [M], U937 cells, 200 μM KA, 6 hours, qPCR
[7] = read-out: Assay 2: AHR-luc Hum Agonism IC50, no kynurenic acid, 20 hours, firefly luciferase

| SMILES | IC50 (AHR [1]; [4]) [M] | IC50 [2, 5] [M] | IC50 (AHR [3]) [M] | IC50 [2, 6] [M] | IC50 (AHR [1]; [7]) [M] |
| --- | --- | --- | --- | --- | --- |
| O=C(N[C@H]1COC[C@@H]1O)c1cc(-c2ccc(Cl)cc2)nn(-c2cccc(F)c2)c1=O (single isomer, unassigned) [Example 135, 6-(4-Chlorophenyl)-2-(3-fluorophenyl)-N-(trans-4-hydroxytetrahydrofuran-3-yl)-3-oxo-2,3-dihydropyridazine-4-carboxamide] | > 2e-05 | – | 1.41e-07 | 1.32e-07 | – |
| O=C(NCC(O)C(F)(F)F)c1cc(-c2ccc(OC(F)(F)F)cc2)nn(-c2cccc(F)c2)c1=O (single isomer, unassigned) [Example 184, 2-(3-Fluorophenyl)-3-oxo-N-(3,3,3-trifluoro-2-hydroxypropyl)-6-[4-(trifluoromethoxy)phenyl]-2,3-dihydropyridazine-4-carboxamide] | – | 1.29e-07 | 1.34e-07 | – | > 2e-05 |
| O=C(NCC(O)C(F)(F)F)c1cc(-c2ccc(Cl)cc2)nn(-c2cccc(F)c2)c1=O (single isomer, unassigned) [Example 27, 6-(4-Chlorophenyl)-2-(3-fluorophenyl)-3-oxo-N-(3,3,3-trifluoro-2-hydroxypropyl)-2,3-dihydropyridazine-4-carboxamide] | – | 2.44e-07 | 1.06e-07 | – | > 2e-05 |
| COC[C@@H](CO)NC(=O)c1cc(-c2ccc(Cl)cc2)nn(-c2cccc(F)c2)c1=O [Example 314, 6-(4-chlorophenyl)-2-(3-fluorophenyl)-N-[(2R)-1-hydroxy-3-methoxypropan-2-yl]-3-oxo-2,3-dihydropyridazine-4-carboxamide] | > 2e-05 | – | 9.54e-08 | 2.31e-07 | – |
| COc1ccc(-c2cc(C(=O)NCC(O)C(F)(F)F)c(=O)n(-c3cccc(F)c3)n2)cc1 (single isomer, unassigned) [Example 128, 2-(3-Fluorophenyl)-6-(4-methoxyphenyl)-3-oxo-N-(3,3,3-trifluoro-2-hydroxypropyl)-2,3-dihydropyridazine-4-carboxamide] | – | 6e-07 | 1.7e-07 | – | > 2e-05 |
| CC(O)CCNC(=O)c1cc(-c2ccc(C(F)(F)F)cc2)nn(-c2cccc(F)c2)c1=O (racemic) [Example 247, 2-(3-Fluorophenyl)-N-[(3RS)-3-hydroxybutyl]-3-oxo-6-[4-(trifluoromethyl)phenyl]-2,3-dihydropyridazine-4-carboxamide] | > 2e-05 | – | 8.35e-08 | 1.71e-07 | – |
| O=C(NC(CO)C1CCOC1)c1cc(-c2ccc(OC(F)F)cc2)nn(-c2cccc(F)c2)c1=O (single isomer, unassigned) [Example 145, 6-[4-(Difluoromethoxy)phenyl]-2-(3-fluorophenyl)-N-{(2-hydroxy-1-tetrahydrofuran-3-yl)ethyl}-3-oxo-2,3-dihydropyridazine-4-carboxamide] | > 2e-05 | – | 9.33e-08 | 3.89e-08 | – |
| CC(C)(CO)NC(=O)c1cc(-c2ccc(Cl)cc2)nn(-c2cccc(F)c2)c1=O [Example 186, 6-(4-Chlorophenyl)-2-(3-fluorophenyl)-N-(1-hydroxy-2-methylpropan-2-yl)-3-oxo-2,3-dihydropyridazine-4-carboxamide] | > 2e-05 | – | 1.88e-07 | 1.34e-07 | – |
| O=C(N[C@H](CO)Cc1ccccc1)c1cc(-c2ccc(C(F)(F)F)cc2)nn(-c2cccc(F)c2)c1=O [Example 251, 2-(3-Fluorophenyl)-N-[(2S)-1-hydroxy-3-phenylpropan-2-yl]-3-oxo-6-[4-(trifluoromethyl)phenyl]-2,3-dihydropyridazine-4-carboxamide] | > 2e-05 | – | 5.09e-06 | 3.67e-08 | – |
| Cc1cccc(-n2nc(-c3ccc(Cl)cc3)cc(C(=O)N[C@H](CO)C(C)C)c2=O)c1 [Example 365, 6-(4-chlorophenyl)-N-[(2S)-1-hydroxy-3-methylbutan-2-yl]-2-(3-methylphenyl)-3-oxo-2,3-dihydropyridazine-4-carboxamide] | > 2e-05 | – | 4.18e-07 | > 1e-06 | – |

Stronger by IC50 (AHR [3]), values ahead:

| IC50 (AHR [1]; [4]) [M] | IC50 [2, 5] [M] | IC50 (AHR [3]) [M] | IC50 [2, 6] [M] | IC50 (AHR [1]; [7]) [M] | SMILES |
| --- | --- | --- | --- | --- | --- |
| > 2e-05 | – | 7.05e-08 | 8.01e-08 | – | O=C(NC[C@H](O)CO)c1cc(-c2ccc(C(F)(F)F)cc2)nn(-c2cccc(F)c2)c1=O [Example 264, (−)-N-[(2S)-2,3-Dihydroxypropyl]-2-(3-fluorophenyl)-3-oxo-6-[4-(trifluoromethyl)phenyl]-2,3-dihydropyridazine-4-carboxamide] |
| – | 1.34e-07 | 4.28e-08 | – | > 2e-05 | Cc1ccc(-c2cc(C(=O)NCC(O)C(C)C)c(=O)n(-c3cc(F)cc(F)c3)n2)cc1 (single isomer, unassigned) [Example 58, 2-(3,5-Difluorophenyl)-N-(2-hydroxy-3-methylbutyl)-6-(4-methylphenyl)-3-oxo-2,3-dihydropyridazine-4-carboxamide] |
| > 2e-05 | – | 2.6e-08 | 5.7e-08 | – | C[C@H](NC(=O)c1cc(-c2ccc(Cl)cc2)nn(-c2cccc(F)c2)c1=O)C(C)(C)O [Example 392, 6-(4-chlorophenyl)-2-(3-fluorophenyl)-N-[(2S)-3-hydroxy-3-methylbutan-2-yl]-3-oxo-2,3-dihydropyridazine-4-carboxamide] |
| > 2e-05 | – | 2.2e-08 | 7.59e-08 | – | CC(NC(=O)c1cc(-c2ccc(Cl)cc2)nn(-c2cccc(F)c2)c1=O)C(C)(C)O (stereo not drawn) [Example 281, 6-(4-Chlorophenyl)-2-(3-fluorophenyl)-N-(3-hydroxy-3-methylbutan-2-yl)-3-oxo-2,3-dihydropyridazine-4-carboxamide] |
| > 2e-05 | – | 2.13e-08 | 2.7e-08 | – | O=C(N[C@@H]1CC[C@@H]1O)c1cc(-c2ccc(Cl)cc2)nn(-c2cccc(F)c2)c1=O (relative stereo) [Example 357] |
| > 2e-05 | – | 2.1e-08 | 3.4e-08 | – | C[C@H](NC(=O)c1cc(-c2ccc(C(F)F)cc2)nn(-c2cccc(F)c2)c1=O)C(C)(C)O [Example 383, 6-[4-(difluoromethyl)phenyl]-2-(3-fluorophenyl)-N-[(2S)-3-hydroxy-3-methylbutan-2-yl]-3-oxo-2,3-dihydropyridazine-4-carboxamide] |
| > 2e-05 | – | 2.03e-08 | 2.91e-08 | – | O=C(N[C@H]1CCC[C@H]1O)c1cc(-c2ccc(Cl)cc2)nn(-c2cccc(F)c2)c1=O [Example 111, 6-(4-Chlorophenyl)-2-(3-fluorophenyl)-N-[(1S,2R)-2-hydroxycyclopentyl]-3-oxo-2,3-dihydropyridazine-4-carboxamide] |
| > 2e-05 | 1.38e-08 | 1.66e-08 | – | – | O=C(NCC(O)C(F)F)c1cc(-c2ccc(C(F)(F)F)cc2)nn(-c2cccc(F)c2)c1=O (single isomer, unassigned; (-)) [Example 327, (−)-N-(3,3-difluoro-2-hydroxypropyl)-2-(3-fluorophenyl)-3-oxo-6-[4-(trifluoromethyl)phenyl]-2,3-dihydropyridazine-4-carboxamide] |
| > 2e-05 | – | 1.59e-08 | 4.47e-09 | – | O=C(N[C@@H]1CCCC[C@@H]1O)c1cc(-c2ccc(Cl)cc2)nn(-c2cccc(F)c2)c1=O (relative stereo) [Example 103, 6-(4-Chlorophenyl)-2-(3-fluorophenyl)-N-(cis-2-hydroxycyclohexyl)-3-oxo-2,3-dihydropyridazine-4-carboxamide] |
| > 2e-05 | – | 1.5e-08 | 1.63e-08 | – | O=C(NC(CO)C(F)(F)F)c1cc(-c2ccc(Cl)cc2)nn(-c2cccc(F)c2)c1=O (stereo not drawn) [Example 97, 6-(4-Chlorophenyl)-2-(3-fluorophenyl)-3-oxo-N-(1,1,1-trifluoro-3-hydroxypropan-2-yl)-2,3-dihydropyridazine-4-carboxamide] |
| > 2e-05 | – | 1.23e-08 | 2.46e-08 | – | C[C@@H](CO)NC(=O)c1cc(-c2ccc(C(F)(F)F)cc2)nn(-c2cccc(F)c2)c1=O [Example 237, 2-(3-Fluorophenyl)-N-[(2S)-1-hydroxypropan-2-yl]-3-oxo-6-[4-(trifluoromethyl)phenyl]-2,3-dihydropyridazine-4-carboxamide] |
| > 2e-05 | – | 1.03e-08 | 1.36e-08 | – | Cc1ccc(-c2cc(C(=O)N[C@H](CO)C(C)C)c(=O)n(-c3cccc(F)c3)n2)cc1 [Example 2, 2-(3-Fluorophenyl)-N-[(2S)-1-hydroxy-3-methylbutan-2-yl]-6-(4-methylphenyl)-3-oxo-2,3-dihydropyridazine-4-carboxamide] |
